Values of other authors as cited in US20240062912A1, “METHODS FOR DETERMINING LIVER FUNCTION COMPRISING A MULTI-COMPARTMENTAL MODEL” (HepQuant, LLC, priority 2022, published 2024).

Conditions: cited from earlier work
[1] = healthy controls, previous studies

## [2H]C1([2H])C[C@@]2(C)[C@H](C[C@@H](O)[C@@H]3[C@@H]2C[C@H](O)[C@]2(C)[C@@H]([C@H](C)CCC(=O)O)CC[C@@H]32)C([2H])([2H])[C@@H]1O [d4-CA, cholic-acid-2,2,4,4-d4]
Diseased liver
  SHUNT: 30-90%
  STAT: 0.6 to 5 µM
  portal HFR (FLOW): 20 to 2 mL/min/kg
[1]
  average HFR (FLOW): 30 mL/min/kg
  average SHUNT: ~20%
  average STAT value: ~0.4
